Measurements taken from ChEMBL document CHEMBL3885861, “Open TG-GATES”.

Species on record: Rattus norvegicus
Test: Open TG-GATES - Regimen: Daily Repeat
Type: toxicity, organism-based, Sprague-Dawley
Set-up: regimen Daily Repeat, gender Male, age 6 weeks
Conditions: in vivo, po, 800 mg/kg, route gavage, dose level High; for Bas / Eos / Fbg / Ht / Lym / MCHC / MCV / Mono / Neu / PT / Plat / RBC / Ret / WBC: tissue Blood; for KIDNEY_L / KIDNEY_R / KIDNEY_TOTAL: tissue Kidney; for ALT / AST / CRE / Ca / Cl / DBIL / GLC / IP / K / LDH / Na / PL / RALB / TBIL / TC / TG / TP / gamma-GTP / BUN: tissue Plasma

COc1ccc([C@@H]2Sc3ccccc3N(CCN(C)C)C(=O)[C@@H]2OC(C)=O)cc1 [DILTIAZEM]
Bas (72 h, time 3 day): 0% | Eos (72 h, time 3 day): 1% | Fbg (72 h, time 3 day): 277 mg/dL | Ht (72 h, time 3 day): 41.8% | Lym (72 h, time 3 day): 71.4% | MCHC (72 h, time 3 day): 33.3% | MCV (72 h, time 3 day): 64.5 fL | Mono (72 h, time 3 day): 2.6% | Neu (72 h, time 3 day): 24.2% | PT (72 h, time 3 day): 14 s | Plat (72 h, time 3 day): 141.9 x10_4/uL | RBC (72 h, time 3 day): 651.2 x10_4/ul | Ret (72 h, time 3 day): 7.5% | WBC (72 h, time 3 day): 87.5 x10_2/uL | KIDNEY_L (72 h, time 3 day): 0.9 g | KIDNEY_R (72 h, time 3 day): 0.9 g | KIDNEY_TOTAL (72 h, time 3 day): 1.8 g | ALT (72 h, time 3 day): 36.4 IU/L | AST (72 h, time 3 day): 61.8 IU/L | CRE (72 h, time 3 day): 0.2 mg/dL | Ca (72 h, time 3 day): 11 mg/dL | Cl (72 h, time 3 day): 106.6 meq/L | DBIL (72 h, time 3 day): 0.014 mg/dL | GLC (72 h, time 3 day): 161.8 mg/dL | IP (72 h, time 3 day): 8 mg/dL | K (72 h, time 3 day): 4 meq/L | LDH (72 h, time 3 day): 76.6 IU/L | Na (72 h, time 3 day): 143.6 meq/L | PL (72 h, time 3 day): 151.4 mg/dL | RALB (72 h, time 3 day): 2.6 g/dL | TBIL (72 h, time 3 day): 0.012 mg/dL | TC (72 h, time 3 day): 92.2 mg/dL | TG (72 h, time 3 day): 96.6 mg/dL | TP (72 h, time 3 day): 5.4 g/dL | gamma-GTP (72 h, time 3 day): 1 IU/L | TERMINAL_BW ([…], time 7 day): 242.9 g | TERMINAL_BW ([…], time 14 day): 272.9 g | TERMINAL_BW ([…], time 28 day): 390.8 g | Bas ([…], time 7 day): 0% | Eos ([…], time 7 day): 0.6% | Fbg ([…], time 7 day): 312.6 mg/dL | Ht ([…], time 7 day): 40.7% | Lym ([…], time 7 day): 70.6% | MCHC ([…], time 7 day): 33.3% | MCV ([…], time 7 day): 63.4 fL | Mono ([…], time 7 day): 2.8% | Neu ([…], time 7 day): 25.4% | PT ([…], time 7 day): 14.6 s | Plat ([…], time 7 day): 130.6 x10_4/uL | RBC ([…], time 7 day): 641.4 x10_4/ul | Ret ([…], time 7 day): 6.3% | WBC ([…], time 7 day): 99.7 x10_2/uL | Bas ([…], time 14 day): 0% | Eos ([…], time 14 day): 0.6% | Fbg ([…], time 14 day): 373.6 mg/dL | Ht ([…], time 14 day): 45.5% | Lym ([…], time 14 day): 73.2% | MCHC ([…], time 14 day): 33.4% | MCV ([…], time 14 day): 59.8 fL | Mono ([…], time 14 day): 3.4% | Neu ([…], time 14 day): 21.4% | PT ([…], time 14 day): 14.1 s | Plat ([…], time 14 day): 133.1 x10_4/uL | RBC ([…], time 14 day): 760 x10_4/ul | Ret ([…], time 14 day): 4% | WBC ([…], time 14 day): 108.8 x10_2/uL | Bas ([…], time 28 day): 0.2% | Eos ([…], time 28 day): 1% | Fbg ([…], time 28 day): 281.5 mg/dL | Ht ([…], time 28 day): 45.1% | Lym ([…], time 28 day): 64.8% | MCHC ([…], time 28 day): 34.1% | MCV ([…], time 28 day): 58.1 fL | Mono ([…], time 28 day): 3.2% | Neu ([…], time 28 day): 30.2% | PT ([…], time 28 day): 14.5 s | Plat ([…], time 28 day): 116.2 x10_4/uL | RBC ([…], time 28 day): 777.2 x10_4/ul | Ret ([…], time 28 day): 3.3% | WBC ([…], time 28 day): 123.1 x10_2/uL | KIDNEY_L ([…], time 7 day): 1 g | KIDNEY_R ([…], time 7 day): 1 g | KIDNEY_TOTAL ([…], time 7 day): 2 g | KIDNEY_L ([…], time 14 day): 1.2 g | KIDNEY_R ([…], time 14 day): 1.2 g | KIDNEY_TOTAL ([…], time 14 day): 2.4 g | KIDNEY_L ([…], time 28 day): 1.5 g | KIDNEY_R ([…], time 28 day): 1.5 g | KIDNEY_TOTAL ([…], time 28 day): 2.9 g | ALT ([…], time 7 day): 50 IU/L | AST ([…], time 7 day): 70.6 IU/L | CRE ([…], time 7 day): 0.2 mg/dL | Ca ([…], time 7 day): 11.3 mg/dL | Cl ([…], time 7 day): 105.6 meq/L | DBIL ([…], time 7 day): 0.006 mg/dL | GLC ([…], time 7 day): 187 mg/dL | IP ([…], time 7 day): 8.3 mg/dL | K ([…], time 7 day): 4 meq/L | LDH ([…], time 7 day): 101.6 IU/L | Na ([…], time 7 day): 144.8 meq/L | PL ([…], time 7 day): 145 mg/dL | RALB ([…], time 7 day): 2.7 g/dL | TBIL ([…], time 7 day): 0.004 mg/dL | TC ([…], time 7 day): 87.2 mg/dL | TG ([…], time 7 day): 59.6 mg/dL | TP ([…], time 7 day): 5.7 g/dL | gamma-GTP ([…], time 7 day): 1.2 IU/L | ALT ([…], time 14 day): 61.6 IU/L | AST ([…], time 14 day): 115.4 IU/L | BUN ([…], time 14 day): 16 mg/dL | CRE ([…], time 14 day): 0.2 mg/dL | Ca ([…], time 14 day): 10.7 mg/dL | DBIL ([…], time 14 day): 0.008 mg/dL | GLC ([…], time 14 day): 166.2 mg/dL | IP ([…], time 14 day): 7.2 mg/dL | K ([…], time 14 day): 4 meq/L | LDH ([…], time 14 day): 96.2 IU/L | Na ([…], time 14 day): 146.4 meq/L | PL ([…], time 14 day): 152.8 mg/dL | RALB ([…], time 14 day): 2.8 g/dL | TBIL ([…], time 14 day): 0.004 mg/dL | TC ([…], time 14 day): 99.2 mg/dL | TG ([…], time 14 day): 66.4 mg/dL | TP ([…], time 14 day): 6.1 g/dL | gamma-GTP ([…], time 14 day): 1 IU/L | ALT ([…], time 28 day): 52.5 IU/L | AST ([…], time 28 day): 64 IU/L | BUN ([…], time 28 day): 17.2 mg/dL | CRE ([…], time 28 day): 0.2 mg/dL | Ca ([…], time 28 day): 11.4 mg/dL | Cl ([…], time 28 day): 105.8 meq/L | DBIL ([…], time 28 day): 0.01 mg/dL | GLC ([…], time 28 day): 174.8 mg/dL | IP ([…], time 28 day): 7.2 mg/dL | K ([…], time 28 day): 3.9 meq/L | LDH ([…], time 28 day): 74.8 IU/L | Na ([…], time 28 day): 145.8 meq/L | PL ([…], time 28 day): 154 mg/dL | RALB ([…], time 28 day): 3 g/dL | TBIL ([…], time 28 day): 0.0025 mg/dL | TC ([…], time 28 day): 85.8 mg/dL | TG ([…], time 28 day): 72.2 mg/dL | TP ([…], time 28 day): 6.4 g/dL | gamma-GTP ([…], time 28 day): 2.2 IU/L
